In general, IC50 refers to the concentration that gives 50% inhibition.

In assay [1] the target is T1, human MetAP2 enzyme (Homo sapiens, UniProt P50579). Nature of the assay: MetAP2 enzyme assay, enzyme complexed with manganese ions. The settings on record: MetAP2 Mn pIC50, MetAP2 enzyme complexed with manganese ions; Met-AMC substrate at Km.
For assay [2], the target named is T1, human MetAP2 enzyme. Nature of the assay: MetAP2 enzyme assay, enzyme complexed with cobalt ions. The settings on record: MetAP2 Co pIC50, MetAP2 enzyme complexed with cobalt ions; Met-AMC substrate at Km.

T1 sequence (P50579 whole entry): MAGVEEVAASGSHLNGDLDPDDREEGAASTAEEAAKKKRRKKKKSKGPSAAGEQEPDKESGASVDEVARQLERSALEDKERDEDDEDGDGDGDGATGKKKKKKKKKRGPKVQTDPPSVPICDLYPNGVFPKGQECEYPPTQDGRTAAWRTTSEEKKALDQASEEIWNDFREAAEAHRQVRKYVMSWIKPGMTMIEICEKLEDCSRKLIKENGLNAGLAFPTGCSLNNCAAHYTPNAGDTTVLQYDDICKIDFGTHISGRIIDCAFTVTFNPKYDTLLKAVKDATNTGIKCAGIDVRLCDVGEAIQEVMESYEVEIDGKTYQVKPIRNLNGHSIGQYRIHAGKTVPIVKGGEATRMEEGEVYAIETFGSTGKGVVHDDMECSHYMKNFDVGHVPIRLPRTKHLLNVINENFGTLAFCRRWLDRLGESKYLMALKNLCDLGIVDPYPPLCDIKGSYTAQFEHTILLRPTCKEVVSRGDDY

In the case of `FC(F)(F)c1cc(-c2cccc(N3CCOCC3)c2)c2cn[nH]c2c1` [Example 57, 4-(3-(6-(trifluoromethyl)-1H-indazol-4-yl)phenyl)morpholine], the half-inhibitory concentration (IC50) on human MetAP2 enzyme [1] was 25.1 nM; at human MetAP2 enzyme [2], 63.1 nM.
For the compound `Cn1cc(-c2cc(C(F)(F)F)cc3[nH]ncc23)c(=O)n(CCO)c1=O` [Example 303, 3-(2-hydroxyethyl)-1-methyl-5-(6-(trifluoromethyl)-1H-indazol-4-yl)pyrimidine-2,4(1H,3H)-dione], the IC50 against human MetAP2 enzyme [1] is 12.6 nM; against human MetAP2 enzyme [2] it was 1000 nM.
For `O=C(O)Cn1cc(-c2cc(C(F)(F)F)cc3[nH]ncc23)ccc1=O` [Example 374, 2-(2-oxo-5-(6-(trifluoromethyl)-1H-indazol-4-yl)pyridin-1(2H)-yl)acetic acid], the IC50 against human MetAP2 enzyme [1] is 63.1 nM; on human MetAP2 enzyme [2], 1580 nM.
Consider `CNc1ncc(-c2cc(C(F)(F)F)cc3[nH]ncc23)cn1` [Example 196, N-methyl-5-(6-(trifluoromethyl)-1H-indazol-4-yl)pyrimidin-2-amine], for which the results for the IC50 on human MetAP2 enzyme [1] and against human MetAP2 enzyme [2] were 6.31 nM and 63.1 nM, respectively.
For `C[C@@H](O)CNc1ncc(-c2cc(C(F)(F)F)cc3[nH]ncc23)cn1` [Example 207, (R)-1-(5-(6-(trifluoromethyl)-1H-indazol-4-yl)pyrimidin-2-ylamino)propan-2-ol] the same measures were 7.94 nM and 79.4 nM.
Take `COC(=O)c1ccc(OC)c(-c2cc(C(F)(F)F)cc3[nH]ncc23)c1` [Example 263, methyl 4-methoxy-3-(6-(trifluoromethyl)-1H-indazol-4-yl)benzoate]: the half-maximal inhibitory concentration (IC50) on human MetAP2 enzyme [1] is 15.8 nM; against human MetAP2 enzyme [2], 20 nM.
For the compound `CCN1C(=O)C(=O)c2cc(C)cc(-c3cc(C(F)(F)F)cc4[nH]ncc34)c21` [Example 199, 1-ethyl-5-methyl-7-(6-(trifluoromethyl)-1H-indazol-4-yl)indoline-2,3-dione], the half-inhibitory concentration (IC50) at human MetAP2 enzyme [1] is 158 nM; against human MetAP2 enzyme [2], 501 nM.
Consider `NC(=O)c1cc(-c2cc(C(F)(F)F)cc3[nH]ncc23)ccn1` [Example 283, 4-(6-(trifluoromethyl)-1H-indazol-4-yl)picolinamide], for which the 50% inhibitory concentration (IC50) at human MetAP2 enzyme [1] was 3.98 nM; against human MetAP2 enzyme [2], 63.1 nM.
As to `CN(C)S(=O)(=O)c1ccccc1-c1cc(C(F)(F)F)cc2[nH]ncc12` [Example 183, N,N-dimethyl-2-(6-(trifluoromethyl)-1H-indazol-4-yl)benzenesulfonamide], the IC50 against human MetAP2 enzyme [1] is 39.8 nM; against human MetAP2 enzyme [2], 316 nM.
On to `CN1CCN(C(=O)c2ccc(-c3cc(C(F)(F)F)cc4[nH]ncc34)cn2)CC1` [Example 271, (4-methylpiperazin-1-yl)(5-(6-(trifluoromethyl)-1H-indazol-4-yl)pyridin-2-yl)methanone], for which the IC50 on human MetAP2 enzyme [1] is 12.6 nM; at human MetAP2 enzyme [2], 316 nM.
In the case of `Cc1nnc(-c2cccc(-c3cc(C(F)(F)F)cc4[nH]ncc34)c2)o1` [Example 37, 2-methyl-5-(3-(6-(trifluoromethyl)-1H-indazol-4-yl)phenyl)-1,3,4-oxadiazole], the half-maximal inhibitory concentration (IC50) was 7.94 nM at human MetAP2 enzyme [1] and 39.8 nM on human MetAP2 enzyme [2].
As to `CNC(=O)c1ccc(-c2cc(C(F)(F)F)cc3[nH]ncc23)cc1F` [Example 92, 2-fluoro-N-methyl-4-(6-(trifluoromethyl)-1H-indazol-4-yl)benzamide], the values for the half-maximal inhibitory concentration (IC50) on human MetAP2 enzyme [1] and against human MetAP2 enzyme [2] were 3.98 nM and 50.1 nM, respectively.
`CC(=O)Nc1cc(C)c(-c2cc(C(F)(F)F)cc3[nH]ncc23)cn1` [Example 179, N-(4-methyl-5-(6-(trifluoromethyl)-1H-indazol-4-yl)pyridin-2-yl)acetamide]: the half-maximal inhibitory concentration (IC50) at human MetAP2 enzyme [1] is 10 nM; at human MetAP2 enzyme [2], 25.1 nM.
The matching figures for `Cc1c(-c2cc(C(F)(F)F)cc3[nH]ncc23)ccc2nnnn12` [Example 398, 5-methyl-6-(6-(trifluoromethyl)-1H-indazol-4-yl)tetrazolo[1,5-a]pyridine]: 3.98 nM and 126 nM.
The matching figures for `O=C1Cc2cccc(-c3cc(C(F)(F)F)cc4[nH]ncc34)c2N1` [Example 136, 7-(6-(trifluoromethyl)-1H-indazol-4-yl)indolin-2-one]: 12.6 nM and 158 nM.
Regarding `Cn1cc(C(=O)NCCO)cc(-c2cc(C(F)(F)F)cc3[nH]ncc23)c1=O` [Example 315, N-(2-hydroxyethyl)-1-methyl-6-oxo-5-(6-(trifluoromethyl)-1H-indazol-4-yl)-1,6-dihydropyridine-3-carboxamide], the IC50 against human MetAP2 enzyme [1] was 10 nM; against human MetAP2 enzyme [2] it was 316 nM.
Consider `Cn1cc(-c2cc(C(F)(F)F)cc3[nH]ncc23)c(N)n1` [Example 144, 1-methyl-4-(6-(trifluoromethyl)-1H-indazol-4-yl)-1H-pyrazol-3-amine], for which the IC50 was 20 nM at human MetAP2 enzyme [1] and 200 nM against human MetAP2 enzyme [2].
For `Cn1ncc(-c2cc(C(F)(F)F)cc3[nH]ncc23)c1CO` [Example 250, (1-methyl-4-(6-(trifluoromethyl)-1H-indazol-4-yl)-1H-pyrazol-5-yl)methanol] the same measures were 6.31 nM and 79.4 nM.
For `Cc1cc(=O)n(C)cc1-c1cc(C(F)(F)F)cc2[nH]ncc12` [Example 403, 1,4-dimethyl-5-(6-(trifluoromethyl)-1H-indazol-4-yl)pyridin-2(1H)-one] the same measures were 10 nM and 63.1 nM.
In the case of `Cn1cc(-c2cc(C(F)(F)F)cc3[nH]ncc23)c(=O)n(Cc2ccc(F)cc2)c1=O` [Example 311, 3-(4-fluorobenzyl)-1-methyl-5-(6-(trifluoromethyl)-1H-indazol-4-yl)pyrimidine-2,4(1H,3H)-dione], the IC50 against human MetAP2 enzyme [1] is 63.1 nM; against human MetAP2 enzyme [2] it was 1000 nM.
With `Cc1nn(C(F)F)c(C)c1-c1cc(C(F)(F)F)cc2[nH]ncc12` [Example 348, 4-(1-(difluoromethyl)-3,5-dimethyl-1H-pyrazol-4-yl)-6-(trifluoromethyl)-1H-indazole], the concentration for half-maximal inhibition (IC50) against human MetAP2 enzyme [1] is 12.6 nM; at human MetAP2 enzyme [2] it was 79.4 nM.
For the compound `NC(=O)c1cc(-c2cc(C(F)(F)F)cc3[nH]ncc23)ccc1Cl` [Example 63, 2-chloro-5-(6-(trifluoromethyl)-1H-indazol-4-yl)benzamide], the concentration for half-maximal inhibition (IC50) was 15.8 nM on human MetAP2 enzyme [1] and 63.1 nM at human MetAP2 enzyme [2].
Take `CN1CCN(C(=O)c2cc(-c3cc(C(F)(F)F)cc4[nH]ncc34)ccn2)CC1` [Example 284, (4-methylpiperazin-1-yl)(4-(6-(trifluoromethyl)-1H-indazol-4-yl)pyridin-2-yl)methanone]: the results for the IC50 against human MetAP2 enzyme [1] and on human MetAP2 enzyme [2] were 7.94 nM and 79.4 nM, respectively.
For the compound `Nc1ncc(-c2cc(C(F)(F)F)cc3[nH]ncc23)cn1` [Example 9, 5-(6-(trifluoromethyl)-1H-indazol-4-yl)pyrimidin-2-amine], the IC50 was 3.98 nM against human MetAP2 enzyme [1] and 50.1 nM against human MetAP2 enzyme [2].
Take `CNc1nc(C)c(-c2cc(C(F)(F)F)cc3[nH]ncc23)cc1C(=O)N1CC(O)C1` [Example 397, (3-hydroxyazetidin-1-yl)(6-methyl-2-(methylamino)-5-(6-(trifluoromethyl)-1H-indazol-4-yl)pyridin-3-yl)methanone]: the figures for the concentration for half-maximal inhibition (IC50) against human MetAP2 enzyme [1] and at human MetAP2 enzyme [2] were 3.98 nM and 15.8 nM, respectively.
For `O=C(NCc1ccccc1)c1cccc(-c2cc(C(F)(F)F)cc3[nH]ncc23)c1` [Example 34, N-benzyl-3-(6-(trifluoromethyl)-1H-indazol-4-yl)benzamide] the same measures were 31.6 nM and 316 nM.
With `OC(COc1ccccc1-c1cc(C(F)(F)F)cc2[nH]ncc12)CN1CCOCC1` (stereo not shown) [Example 180, 1-morpholino-3-(2-(6-(trifluoromethyl)-1H-indazol-4-yl)phenoxy)propan-2-ol], the results for the IC50 on human MetAP2 enzyme [1] and on human MetAP2 enzyme [2] were 39.8 nM and 1000 nM, respectively.
Regarding `CCn1nc(C)c(-c2cc(C(F)(F)F)cc3[nH]ncc23)c1C` [Example 168, 4-(1-ethyl-3,5-dimethyl-1H-pyrazol-4-yl)-6-(trifluoromethyl)-1H-indazole], the results for the half-maximal inhibitory concentration (IC50) at human MetAP2 enzyme [1] and on human MetAP2 enzyme [2] were 6.31 nM and 25.1 nM, respectively.
For `FC(F)(F)c1cc(-c2csc(N3CCOCC3)n2)c2cn[nH]c2c1` [Example 60, 4-(4-(6-(trifluoromethyl)-1H-indazol-4-yl)thiazol-2-yl)morpholine] the same measures were 50.1 nM and 1000 nM.
In the case of `Cn1cc(C(=O)NCC(O)CO)cc(-c2cc(C(F)(F)F)cc3[nH]ncc23)c1=O` (stereo not shown) [Example 356, N-(2,3-dihydroxypropyl)-1-methyl-6-oxo-5-(6-(trifluoromethyl)-1H-indazol-4-yl)-1,6-dihydropyridine-3-carboxamide], the 50% inhibitory concentration (IC50) on human MetAP2 enzyme [1] is 6.31 nM; at human MetAP2 enzyme [2], 316 nM.
With `Cc1nn(CCC(N)=O)c(C)c1-c1cc(C(F)(F)F)cc2[nH]ncc12` [Example 172, 3-(3,5-dimethyl-4-(6-(trifluoromethyl)-1H-indazol-4-yl)-1H-pyrazol-1-yl)propanamide], the IC50 at human MetAP2 enzyme [1] was 7.94 nM; against human MetAP2 enzyme [2], 50.1 nM.
In the case of `Cc1nc(N2CCCC2)ccc1-c1cc(C(F)(F)F)cc2[nH]ncc12` [Example 384, 4-(2-methyl-6-(pyrrolidin-1-yl)pyridin-3-yl)-6-(trifluoromethyl)-1H-indazole], the IC50 at human MetAP2 enzyme [1] was 15.8 nM; against human MetAP2 enzyme [2] it was 79.4 nM.
As to `COc1ncc(-c2cc(C(F)(F)F)cc3[nH]ncc23)cc1C(=O)NCCO` [Example 229, N-(2-hydroxyethyl)-2-methoxy-5-(6-(trifluoromethyl)-1H-indazol-4-yl)nicotinamide], the half-maximal inhibitory concentration (IC50) on human MetAP2 enzyme [1] was 6.31 nM; against human MetAP2 enzyme [2], 63.1 nM.
Take `Cc1c[nH]c2ncc(-c3cc(C(F)(F)F)cc4[nH]ncc34)cc12` [Example 340, 4-(3-methyl-1H-pyrrolo[2,3-b]pyridin-5-yl)-6-(trifluoromethyl)-1H-indazole]: the IC50 against human MetAP2 enzyme [1] was 15.8 nM; against human MetAP2 enzyme [2], 100 nM.
On to `N#Cc1ccc(CO)c(-c2cc(C(F)(F)F)cc3[nH]ncc23)c1` [Example 140, 4-(hydroxymethyl)-3-(6-(trifluoromethyl)-1H-indazol-4-yl)benzonitrile], for which the values for the IC50 against human MetAP2 enzyme [1] and against human MetAP2 enzyme [2] were 3.98 nM and 31.6 nM, respectively.

For the origin of these results see patent US9434743B2, “Indazole derivatives” (TAKEDA PHARMACEUTICAL COMPANY LIMITED, priority 2012, dated 2016).
